Where “and” joins values, the source holds several entries; their conditions need not be identical. Equal values may be shown once.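 1) Cells in 96-well plates. 2) Compound, 48 h, 5 concentrations. 3) Linear interpolation between surrounding doses. 4) Unreached endpoint = highest concentration. Here, GI50 denotes the concentration required for 50% inhibition of growth. TGI is the concentration that stops growth completely.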
Tests used:
Test in all cases: inhibition of tumour cell growth, NCI panel, 48 h
BT-549 breast = system: BT-549 breast
CCRF-CEM leukemia = system: CCRF-CEM leukemia
HOP-92 NSCLC = system: HOP-92 NSCLC
HT29 colon = system: HT29 colon
K-562 leukemia = system: K-562 leukemia
M14 melanoma = system: M14 melanoma
MALME-3M melanoma = system: MALME-3M melanoma
MDA-MB-435 = system: MDA-MB-435
SF-539 CNS = system: SF-539 CNS
SNB-19 CNS = system: SNB-19 CNS

COc1ccc(-c2cc(/C=C3\C(=O)Nc4ccc(OC)cc43)[nH]n2)cc1
GI50 (BT-549 breast): > 100 µM
TGI (BT-549 breast): > 100 µM
GI50 (CCRF-CEM leukemia): > 100 µM
TGI (CCRF-CEM leukemia): > 100 µM
GI50 (HOP-92 NSCLC): > 100 µM
TGI (HOP-92 NSCLC): > 100 µM
GI50 (HT29 colon): 1.58 µM
TGI (HT29 colon): > 100 µM
GI50 (K-562 leukemia): 0.479 µM
TGI (K-562 leukemia): > 100 µM
GI50 (M14 melanoma): > 100 µM
TGI (M14 melanoma): > 100 µM
GI50 (MALME-3M melanoma): > 100 µM
TGI (MALME-3M melanoma): > 100 µM
GI50 (MDA-MB-435): 0.317 µM
TGI (MDA-MB-435): 26.1 µM
GI50 (SF-539 CNS): 6.67 µM
TGI (SF-539 CNS): > 100 µM
GI50 (SNB-19 CNS): 77.2 µM
TGI (SNB-19 CNS): > 100 µM

CC(=O)OC[C@]12CC[C@@H]([C@@H](C)C(N)=O)[C@@H]1[C@H]1CC[C@@H]3[C@@]4(C)CC[C@H](OC(C)=O)C(C)(C)[C@@H]4CC[C@@]3(C)[C@]1(C)CC2
GI50 (BT-549 breast): 8.17 µM
TGI (BT-549 breast): 22.6 µM
GI50 (CCRF-CEM leukemia): 5.19 µM
TGI (CCRF-CEM leukemia): 30 µM
GI50 (HOP-92 NSCLC): 5.21 µM
TGI (HOP-92 NSCLC): 19.4 µM
GI50 (HT29 colon): 3.73 µM
TGI (HT29 colon): 15.4 µM
GI50 (K-562 leukemia): 4.09 µM
TGI (K-562 leukemia): 35.7 µM
GI50 (M14 melanoma): 7.38 µM
TGI (M14 melanoma): 31.6 µM
GI50 (MALME-3M melanoma): 10.5 µM
TGI (MALME-3M melanoma): 24.2 µM
GI50 (MDA-MB-435): 5.23 µM
TGI (MDA-MB-435): 22.3 µM
GI50 (SF-539 CNS): 5.52 µM
TGI (SF-539 CNS): 17.7 µM
GI50 (SNB-19 CNS): 11.9 µM
TGI (SNB-19 CNS): 29.1 µM

CCC1CC(=O)N(SCC(N)C(=O)O)C1=O (stereo unspecified)
TGI (BT-549 breast): > 100 µM
TGI (CCRF-CEM leukemia): > 100 µM
TGI (HOP-92 NSCLC): > 100 µM
TGI (HT29 colon): > 100 µM
TGI (K-562 leukemia): > 100 µM
TGI (M14 melanoma): > 100 µM
TGI (MALME-3M melanoma): > 100 µM
TGI (MDA-MB-435): > 100 µM
TGI (SF-539 CNS): > 100 µM
TGI (SNB-19 CNS): > 100 µM

COc1cc([C@@H]2c3cc4c(cc3[C@H](O)[C@H]3COC(=O)[C@H]23)OCO4)cc(OC)c1OC
GI50 (BT-549 breast): < 0.01 µM
GI50 (CCRF-CEM leukemia): < 0.01 µM
GI50 (HOP-92 NSCLC): < 0.01 µM
GI50 (HT29 colon): < 0.01 µM
GI50 (K-562 leukemia): < 0.01 µM
TGI (K-562 leukemia): > 100 µM and 50 µM
GI50 (M14 melanoma): < 0.005 µM
TGI (MALME-3M melanoma): > 100 µM and 50 µM
GI50 (MDA-MB-435): < 0.01 µM
TGI (MDA-MB-435): < 0.005 µM
GI50 (SF-539 CNS): < 0.01 µM
TGI (SF-539 CNS): < 0.005 µM
GI50 (SNB-19 CNS): < 0.01 µM
TGI (SNB-19 CNS): > 100 µM and 50 µM

CC(=O)OCC1OC(OC2=C(CC=C(Cl)Cl)C(=O)c3ccccc3C2=O)C(OC(C)=O)C(OC(C)=O)C1OC(C)=O (stereo unspecified)
GI50 (BT-549 breast): 7.03 µM
TGI (BT-549 breast): 20.4 µM
GI50 (CCRF-CEM leukemia): 0.894 µM
TGI (CCRF-CEM leukemia): > 100 µM
GI50 (HOP-92 NSCLC): 0.222 µM
TGI (HOP-92 NSCLC): 1.59 µM
GI50 (HT29 colon): 16 µM
TGI (HT29 colon): 60.5 µM
GI50 (K-562 leukemia): 1.06 µM
TGI (K-562 leukemia): > 100 µM
GI50 (M14 melanoma): 12.6 µM
TGI (M14 melanoma): 28 µM
GI50 (MALME-3M melanoma): 2.66 µM
TGI (MALME-3M melanoma): 5.83 µM
GI50 (MDA-MB-435): 4.38 µM
TGI (MDA-MB-435): 16 µM
GI50 (SF-539 CNS): 4.09 µM
TGI (SF-539 CNS): 14.6 µM
GI50 (SNB-19 CNS): 11.8 µM
TGI (SNB-19 CNS): 24.8 µM

COc1cccc(C2C3=C(COC3=O)N(CCO)c3cc4c(cc32)OCCO4)c1 (stereo unspecified)
GI50 (BT-549 breast): 0.255 µM
TGI (BT-549 breast): > 10.9 µM
GI50 (CCRF-CEM leukemia): 0.151 µM
TGI (CCRF-CEM leukemia): > 50 µM
GI50 (HOP-92 NSCLC): 0.0348 µM
TGI (HOP-92 NSCLC): 2.89 µM
GI50 (HT29 colon): 0.124 µM
TGI (HT29 colon): 1.34 µM
GI50 (K-562 leukemia): 0.0827 µM
TGI (K-562 leukemia): > 50 µM
GI50 (M14 melanoma): 0.052 µM
TGI (M14 melanoma): 0.19 µM
GI50 (MALME-3M melanoma): 49.1 µM
TGI (MALME-3M melanoma): > 50 µM
GI50 (MDA-MB-435): 0.0179 µM
TGI (MDA-MB-435): 0.0767 µM
GI50 (SF-539 CNS): 0.124 µM
TGI (SNB-19 CNS): > 15.8 µM

COC(=O)[C@@]1(C)CC[C@]2(C)CC[C@]3(C)C4=CC=C5C(=CC(=O)C(O)=C5C)[C@]4(C)CC[C@@]3(C)[C@@H]2C1
GI50 (BT-549 breast): 0.36 µM
TGI (BT-549 breast): 0.889 µM
GI50 (CCRF-CEM leukemia): 0.21 µM
TGI (CCRF-CEM leukemia): 0.745 µM
GI50 (HOP-92 NSCLC): 0.163 µM
TGI (HOP-92 NSCLC): 0.362 µM
GI50 (HT29 colon): 0.207 µM
TGI (HT29 colon): 0.445 µM
GI50 (K-562 leukemia): 0.251 µM
TGI (K-562 leukemia): 0.715 µM
GI50 (M14 melanoma): 0.198 µM
TGI (M14 melanoma): 0.49 µM
GI50 (MALME-3M melanoma): 0.232 µM
TGI (MALME-3M melanoma): 0.446 µM
GI50 (MDA-MB-435): 0.195 µM
TGI (MDA-MB-435): 0.503 µM
GI50 (SF-539 CNS): 0.26 µM
TGI (SF-539 CNS): 0.554 µM
GI50 (SNB-19 CNS): 0.276 µM
TGI (SNB-19 CNS): 0.936 µM

COc1cc2c3c(n(C)c(=O)c2cc1OC)-c1cc2c(cc1/C3=C\CCCBr)OCO2
GI50 (BT-549 breast): > 20.5 µM
TGI (BT-549 breast): > 51.9 µM
GI50 (CCRF-CEM leukemia): 14.3 µM
TGI (CCRF-CEM leukemia): 50.3 µM
GI50 (HOP-92 NSCLC): 92.4 µM
TGI (HOP-92 NSCLC): > 100 µM
GI50 (HT29 colon): > 100 µM
TGI (HT29 colon): > 100 µM
GI50 (K-562 leukemia): 58.3 µM
TGI (K-562 leukemia): > 100 µM
GI50 (M14 melanoma): > 96.6 µM
TGI (M14 melanoma): > 100 µM
GI50 (MALME-3M melanoma): 7.2 µM
TGI (MALME-3M melanoma): > 45.4 µM
GI50 (MDA-MB-435): > 100 µM
TGI (MDA-MB-435): > 100 µM
GI50 (SF-539 CNS): 10.3 µM
TGI (SF-539 CNS): > 41.6 µM
GI50 (SNB-19 CNS): 23.4 µM
TGI (SNB-19 CNS): > 65.8 µM

CC[C@H](C)n1cc(C)c2c(C(=O)NCc3c(C)cc(C)[nH]c3=O)cc(-c3ccc(N4CCNCC4)nc3)cc21
GI50 (BT-549 breast): 15.4 µM and 13.5 µM
TGI (BT-549 breast): 30.5 µM and 27.7 µM
GI50 (CCRF-CEM leukemia): 18 µM and 11.1 µM
TGI (CCRF-CEM leukemia): 35.9 µM and 26.3 µM
GI50 (HOP-92 NSCLC): 6.72 µM and 6.83 µM
TGI (HOP-92 NSCLC): 20.9 µM and 21.1 µM
GI50 (HT29 colon): 5.19 µM and 6.53 µM
TGI (HT29 colon): 18.4 µM and 20.6 µM
GI50 (K-562 leukemia): 2.87 µM and 3.2 µM
TGI (K-562 leukemia): 8.09 µM and 10.9 µM
GI50 (M14 melanoma): 9.56 µM and 4.52 µM
TGI (M14 melanoma): 22.5 µM and 14.3 µM
GI50 (MALME-3M melanoma): 8 µM and 2.51 µM
TGI (MALME-3M melanoma): 21.5 µM and 6.78 µM
GI50 (MDA-MB-435): 10 µM and 5.12 µM
TGI (MDA-MB-435): 21.6 µM and 16.3 µM
GI50 (SF-539 CNS): 15.1 µM and 13 µM
TGI (SF-539 CNS): 28.5 µM and 26.7 µM
GI50 (SNB-19 CNS): 14.9 µM and 12.7 µM
TGI (SNB-19 CNS): 30.4 µM and 26.8 µM

O=C1/C(=C/c2ccccc2)CCC/C1=C\c1ccccc1
TGI (BT-549 breast): 10.9 µM and 24 µM
GI50 (CCRF-CEM leukemia): 18.5 µM
TGI (CCRF-CEM leukemia): 36.5 µM and 51.1 µM and > 100 µM
GI50 (HOP-92 NSCLC): 6.48 µM
TGI (HOP-92 NSCLC): 13 µM and 35.2 µM and 37.3 µM
GI50 (HT29 colon): 2.54 µM
TGI (HT29 colon): 11.5 µM and 18.7 µM and 5.96 µM
GI50 (K-562 leukemia): 20.3 µM and 4.56 µM
TGI (K-562 leukemia): 36.5 µM and 32.9 µM and > 100 µM
GI50 (M14 melanoma): 2.96 µM
TGI (M14 melanoma): 12.9 µM and 19 µM and 7.88 µM
GI50 (MALME-3M melanoma): 6.54 µM and 21 µM
TGI (MALME-3M melanoma): 11.9 µM and 33.3 µM and 59.7 µM
GI50 (MDA-MB-435): 2.71 µM
TGI (MDA-MB-435): 11 µM and 14.1 µM
GI50 (SF-539 CNS): 6.9 µM and 22.3 µM
TGI (SF-539 CNS): 12.2 µM and 32.7 µM and 53.4 µM
GI50 (SNB-19 CNS): 6 µM and 12.2 µM
TGI (SNB-19 CNS): 10.9 µM and 29 µM and 31 µM

From PubChem BioAssay (NCI)
